Experimental data as given in patent US20240408051A1, “ADMINISTRATION METHOD OF A CHEMOTHERAPEUTIC AGENT” (priority 2021, published 2024).

Legend:
[1] = test system: SW 1088 cells, A-172 cells, U-87 MG cells; assay: Cell viability using neutral red dye; type: cell-based; settings: Stiripentol at 250 μ/M; after 24 hours; SW 1088, A-172, U-87 MG cells; vs untreated negative control
Experimental: According to an embodiment the Cell viability can be determined using MTT dye (3-(4,5-dimethylthiazol-2-yl)-2,5-diphenyltetrazolium bromide) and neutral red dye (3-amino-7-dimethylamino-2-methyl-phenazine hydrochloride). Cells can be incubated with drugs at indicated concentrations and time points. For the MTT assay, at the end of the drug treatments, cells are treated with 0.05% (w/v) MTT dye for 4 h at 37° C. The formazan crystals are dissolved in DMSO and absorbance was measured at 570 nm using the spectrophotometer. Similarly for neutral red assay, Cells are incubated with drugs at indicated concentrations and time points. Briefly, at the end of the drug treatments, cells are incubated with 40 μg/ml neutral red dye for 4 h at 37° C. Cells were then destained using a solution (50% ethanol, 49% deionized water, and 1% glacial acetic acid). Absorbance was measured at 540 nm using Tecan spectrophotometer. Referring to FIG. 2, cell viability can be determined by utilizing natural red dye (3-amino-7-dimethylamino-2-methyl-phenazine hydrochloride). Cancer cells from various cell lines namely SW 1088 cells, A-172 cells, U-87 MG cells are incubated with Stiripentol and Doxorubicin (used as positive control) in the concentration range of 50-250 μ/M. thereafter the cells are treated with 40 μg/ml neutral red dye for 4 h at 37° C. and destained. […]

[2] = test system: SW 1088 cells, A-172 cells, U-87 MG cells; assay: Cell viability using MTT dye; type: cell-based; settings: Stiripentol at 250 μ/M; SW 1088, A-172, U-87 MG cells; vs untreated negative control
Experimental: The present disclosure uses Stiripentol as a chemotherapeutic agent to treat brain tumor. Referring to FIG. 1, the cell viability is determined by using MTT dye (3-(4,5-dimethylthiazol-2-yl)-2,5-diphenyltetrazolium bromide and neutral red dye (3-amino-7-dimethylamino-2-methyl-phenazine hydrochloride). Cancer cells from various cell lines (SW 1088 cells, A-172 cells, U-87 MG cells) are incubated with, Stiripentol in the concentration range of 100-250 μ/M. Simultaneously all the cell lines are incubated with etoposide (positive control) in the concentration of 50 μ/M. The cells lines were thereafter treated with 0.05% (w/v) MTT dye for 4 h at 37° C. and DMSO. The cells lines that received no treatment are used as negative control. […] Cells can be incubated with drugs at indicated concentrations and time points. For the MTT assay, at the end of the drug treatments, cells are treated with 0.05% (w/v) MTT dye for 4 h at 37° C. The formazan crystals are dissolved in DMSO and absorbance was measured at 570 nm using the spectrophotometer. Similarly for neutral red assay, Cells are incubated with drugs at indicated concentrations and time points. Briefly, at the end of the drug treatments, cells are incubated with 40 μg/ml neutral red dye for 4 h at 37° C. […] Absorbance was measured at 540 nm using Tecan spectrophotometer.

LDH enzyme from U-87 MG = assay: LDH inhibitory activity; type: biochemical; settings: Stiripentol at 200 μ/M; after 24 hours; 1.7 mM pyruvate, 250 μM β-NADH; homogenized U-87 MG cells
Experimental: Cancer cells up regulate glycolysis to support rapid growth. LDH is an enzyme part of glycolysis. Referring to FIG. 4 LDH inhibitory activity of Stiripentol can be measured by using LDH enzyme from U-87 MG. The cell culture media is treated with HEPES buffer. Cells are homogenized and treated with the respective drug. Cancer cells thereafter are incubated with Oxamate (used as positive control) at 250 μ/M and Stiripentol at 100 and 200 μ/M respectively. The treated cells are mixed with 1.7 mM of pyruvate and 250 μM of β-NADH.

[3] = test system: SW 1088 cells, A-172 cells, U-87 MG cells; assay: Cell proliferation activity using BrdU assay; type: cell-based; settings: Stiripentol at 250 μ/M; after 72 hours; SW 1088, A-172, U-87 MG cells; vs untreated negative control
Experimental: Referring to FIG. 3, cell proliferative activity of the cancer cells can be determined using BrdU assay. Cancer cells from cell lines namely SW 1088 cells, A-172 cells, U-87 MG cells are incubated with Stiripentol and Doxorubicin (used as positive control) in the concentration range of 50-250 μ/M. The cell lines are treated with 10 micromolar of BrdU for 2 hours and washed with PBS and Formaldehyde. The treated cell lines are incubated with primary antibody and the secondary antibody. The untreated cells lines are used as negative control here.

CC(C)(C)C(O)/C=C/c1ccc2c(c1)OCO2 (stereo not shown) [Stiripentol, 4,4-dimethyl-1-[3,4-(methylendioxy)-phenyl]-1penten-3-ol]
viability of the cancer cells (natural red dye) [1]: substantial reduction in the viability
cell viability (MTT dye) [2]: substantial decrease in the cell viability
LDH inhibitory activity (production of LDH enzyme) (LDH enzyme from U-87 MG): substantial decrease in the production of LDH enzyme
cell proliferation activity (BrdU) [3]: substantial reduction in the cell proliferation activity
